Data set [1] relates to P388. Nature of the data set: Antitumor activity against mouse P388 cells xenografted in mouse assessed as median life span at 4 mg/kg, ip q4d for 3 days measured for 60 days. It counts as functional. The settings on record: route intraperitoneal.
Data set [2] concerns HeLa. Nature of the data set: Cytotoxicity against human HeLa cells. It counts as functional.
The subject of data set [3] is P388. Nature of the data set: Antitumor activity against mouse P388 cells xenografted in mouse assessed as median life span at 8 mg/kg, ip q4d for 3 days measured for 60 days. The settings on record: route intraperitoneal. Format: functional.
The subject of data set [4] is MCF7. The data set can be described thus: Cytotoxicity against human MCF7 cells. Format: functional.
The subject of data set [5] is P388. Nature of the data set: Antitumor activity against mouse P388 cells xenografted in mouse assessed as median life span at 2 mg/kg, ip q4d for 3 days measured for 60 days. It counts as functional. The settings on record: route intraperitoneal.
In data set [6] the test system is P388. The data set can be described thus: Antitumor activity against mouse P388 cells xenografted in mouse assessed as median life span at 6 mg/kg, ip q4d for 3 days measured for 60 days. Format: functional. The settings on record: route intraperitoneal.
Data set [7] concerns P388. Nature of the data set: Antitumor activity against mouse P388 cells xenografted in mouse assessed as median life span at 12 mg/kg, ip q4d for 3 days measured for 60 days. It counts as functional. The settings on record: route intraperitoneal.
The nature of data set [8]: Toxicity to mouse assessed as mortality at 12 mg/kg, ip q4d for 3 days. Format: organism-based. The arrangement: dose 12 mg/kg, route intraperitoneal. The settings on record: in vivo, read-out: Activity.
Data set [9] deals with P388. The data set can be described thus: Antitumor activity against mouse P388 cells xenografted in mouse assessed as median life span at 3 mg/kg, ip q4d for 3 days measured for 60 days. It counts as functional. The settings on record: route intraperitoneal.

The record followed here is ChEMBL document CHEMBL1136853, “Synthesis and SAR of vinca alkaloid analogues” (Bioorg Med Chem Lett, 2009).

Where only a bound is given, the exact number is not on record here.

The term T/C denotes the ratio of treated to control. The term GI50 denotes the concentration that inhibits growth by half. As for `CC[C@]1(O)C[C@H]2CN(CCc3c([nH]c4ccc(SC)cc34)[C@@](C(=O)OC)(c3cc4c(cc3OC)N(C)[C@H]3[C@@](O)(C(=O)OC)[C@H](OC(C)=O)[C@]5(CC)CC=CN6CC[C@]43[C@@H]65)C2)C1`, the T/C turned out to be 110% in data set [1] and 243% in [3]. The results for the concentration for 50% growth inhibition (GI50) in data set [2] and in data set [4] were 0.6 nM and 2 nM, respectively.
Consider `CCC1=C[C@H]2CN(C1)Cc1c([nH]c3ccc(SC)cc13)[C@@](C(=O)OC)(c1cc3c(cc1OC)N(C)[C@H]1[C@@](O)(C(=O)OC)[C@H](OC(C)=O)[C@]4(CC)CC=CN5CC[C@]31[C@@H]54)C2`, for which the figures for the T/C in data set [1] and in data set [5] were 124% and 102%, respectively. Besides, the values for the GI50 in data set [2] and in data set [4] were 0.3 nM and 1 nM, respectively.
Consider `CCSc1ccc2[nH]c3c(c2c1)CCN1C[C@H](C[C@@](O)(CC)C1)C[C@]3(C(=O)OC)c1cc2c(cc1OC)N(C=O)[C@H]1[C@@](O)(C(=O)OC)[C@H](OC(C)=O)[C@]3(CC)CC=CN4CC[C@]21[C@@H]43`, for which the concentration for 50% growth inhibition (GI50) in data set [2] came to 6 nM; in data set [4], 8 nM. The T/C is recorded as 107% in data set [6] and 105% in data set [7].
`CCC1=C[C@@H]2CN(C1)Cc1c([nH]c3ccccc13)[C@@](C(=O)OC)(c1cc3c(cc1OC)N(C)[C@H]1[C@@](O)(C(=O)OC)[C@H](OC(C)=O)[C@]4(CC)C=CCN5CC[C@]31[C@@H]54)C2` [VINORELBINE]: the concentration for 50% growth inhibition (GI50) came to 2.7 nM in data set [2] and 2.4 nM in data set [4]. Also, the T/C in data set [6] is on record as 114%; in data set [7] it was 117%. Also, the mortality at 72 h in [8] was greater than 10%.
Turning to `CC[C@]1(O)C[C@H]2CN(CCc3c([nH]c4ccc(C)cc34)[C@@](C(=O)OC)(c3cc4c(cc3OC)N(C)[C@H]3[C@@](O)(C(=O)OC)[C@H](OC(C)=O)[C@]5(CC)CC=CN6CC[C@]43[C@@H]65)C2)C1`, the GI50 in [2] and in [4] was 0.3 nM each time. In addition, the T/C in data set [6] was found to be 181%; in data set [9], 133%.
